The text on the data set:
The present invention also utilizes the salts of pyrithione, especially the zinc salt.

Read-outs that look alike come from different tables or passages of the source.

Zinc pyrithione: the solubility entry runs as follows: (in solution in an admixture of alcohols and water) “about 60 ppm”; (in water) “about 8 ppm”.
